The text below walks through data of patent publication US7741436B2, “Biologically active peptides and their use for repairing injured nerves” (priority 2001, dated 2010).

Common to all, as to assay type: cell-based
Assay [1] deals with rat cerebellar granule neurons. Briefly: Electrophysiology: voltage-clamped whole-cell patch recordings of currents induced by laminin-1-derived peptides and fusion proteins. To be noted: whole-cell patch clamp, neurons on laminin-1 substratum. An excerpt:
Sixteen-day pregnant Sprague-Dawley female rats were obtained from Taconic Farms, and maintained at the animal facility of National Institute of Alcohol Abuse and Alcoholism (NTH), fed with NTH-31 diet, containing 20,000 IU/kg vitamin A after autoclaving. The rats were allowed to give birth, and cerebellar tissues of 3-day-old female pups were aseptically isolated as described previously (Matsuzawa et al., 1996a). A suspension of single cells was obtained by trypsinizing the cerebella as described elsewhere (Liesi and Wright, 1996), after which 10^5 cells were plated on 22 mm glass coverslip pre-coated with laminin-1. The cells were incubated in an atmosphere of 95% air/5% CO2 at +37° C. in RPMI 1640 culture medium supplemented with penicillin and streptomycin and 200 μM L-glutamine. After 24 hrs, the cells were used for electrophysiology.
Recordings were done at room temperature using a List EPC-7 patch-clamp amplifier in voltage-clamped whole-cell patch configuration as described previously (Liesi and Wright, 1996). Pipettes were pulled from borosilicate glass and lightly fire polished. Experiments were performed at room temperature. Whole-cell currents were recorded on a Gould 2400S strip chart recorder. Cell membrane potential was clamped at −40 mV unless otherwise noted. All bath solutions were applied through pinch-valves that controlled the flow from multiple reservoirs to a single 200 μm ID barrel of fused silica. Standard bath solution was RPMI 1640, buffered with 10 mM HEPES (pH 7.4). The standard pipette solution contained (in mM): CsMeSO4 100, CsCl 15, BAPTA 5, HEPES 10 (pH KOH-adjusted to 7.2). Tests for reversal potentials were conducted in low K^+ bath solution containing (in mM): NaCl 150, KCl 5, CaCl2 1, HEPES 10 (pH adjusted to 7.2 with NaOH) and a high K^+ bath solution, containing (in mM): NaCl 115, KCl 40, CaCl2 1, HEPES 10 (pH adjusted to 7.2 with NaOH). All bath solutions contained 300 nM TTX. […] Nernst reversal potentials were calculated according to Hille (1992). […]

Assay [2] concerns human embryonic neocortical neurons. Briefly: Survival of human embryonic neocortical neurons on injured glial cells of the human spinal cord. To be noted: 72 hrs. An excerpt:
The CNS tissues were first placed in cold saline. The spinal cord tissues were identified under a stereomicroscope, and carefully freed of meninges. To obtain monolayer cultures of human spinal cord glial cells, the cells were dissociated by mechanical trituration using a Pasteur-pipette, and placed in Petri dishes (Corning, N.Y., USA) containing 10% fetal calf serum (Hyclone, Logan, UH) in DMEM-F12 (Gibco, U.K.) supplemented with penicillin and streptomycin as described (Liesi et al. 2001).
Human embryonic spinal cord glial cells were cultured till confluency in 10% fetal bovine serum as described (Liesi et al., 2001). The confluent cultures were trypsinized and cells replated at 100 000 cells/22 mm glass coverslip, and grown till confluency. The confluent cultures were changed into normal adult human serum, and injured by using a 18 G gauge sterile needle. The KDI peptide was added at 1 μg/ml (3 μM) and at 10 μg/ml (30 μM) concentration and the P1543 peptide (p20) was added at a concentration of 1 μM, and 50-100 000 freshly isolated human embryonic neocortical neurons were added on the glial cells. The control cultures had neurons added either without the peptide or the lesion. The cells were cultured for 72 hrs in 5% CO2/95% air at +37° C., and fixed for quantitation of neurons and measurement of their neuritic lengths. The neurons on glial monolayers were visualized by immunostaining using mouse monoclonal antibodies against a neuron-specific tubulin isoform (TUJ1). The results were evaluated by counting neurons in six random fields on 3 different coverslip per experiment. In this way, more than 300 neurons were counted per experiment. Statistical analysis of the results was performed using one-way analysis of Varians (ANOVA) and Student-Newman-Keuls multiple comparisons test on the Instat (v2.03) program (GraphPad, San Diego, Calif.).

The test system of assay [3] is embryonal bodies of human CNS. In words: Attachment and neurite outgrowth of embryonal bodies on white matter of cryostat sections of adult human spinal cord (myelin influence). Conditions: 5-10 μg/ml. As to the method:
Embryonal bodies containing immature stem cells from spinal cord, or neocortex were obtained by placing the mechanically dissociated CNS-cells on 10 cm Petri dishes (Corning) in Neurobasal medium (Gibco, U.K.) with B27-supplement (Gibco, U.K.), antibiotics and 500 μM L-glutamine.
Cryostat sections (10 μm) of adult normal human spinal cord were cut in coronal plain on SuperFrost Plus slides (Menzel, Germany). Each slide had three sections. The slides with freshly cut sections were immediately placed in sterile Quadriperm-plates (In Vitro Systems & Services, Germany) and 10 ml of culture medium was added. The culture medium was 1.0% normal adult human serum in DMEM-F12 supplemented with penicillin and streptomycin. Two embryonal bodies were placed on areas of white matter on top of each section, and the cultures were placed in the incubator with 5% CO2/95% air at 98% humidity at +37° C. The KDI peptide (Multiple Peptide Systems, La Jolla, Calif.) was added in the medium at 1-10 μg/ml, and the 10-amino acid precursor (RDIAEIIKDI (SEQ ID NO: 1)) was added at equimolar concentrations. The control cultures received no peptide. After 10 days, the cultures were fixed and immunostained for neurofilament proteins and additional neuronal and glial markers to identify the neurites and cells within the embryonal bodies. Numbers of embryonal bodies attached, and extending neurites directly on the adult white matter tissue were counted on each slide and the results analyzed using one-way-variance-analysis (ANOVA). Numbers of long neurites (>100 μm) extending from embryonal bodies in control cultures and in cultures with 5-10 μg/ml of the KDI peptide in the culture medium were counted and a non-parametric Whitney-Mann test was used to analyze those results.

As for KDI, the “induction of currents in cerebellar granule neurons” value in assay [1] was “induced currents”. The “attachment and neurite outgrowth of neocortical neurons on lesioned spinal cord glial cells” value in assay [2] (1 μg/ml soluble peptide, vs lesion control) is on record as “significantly (p<0.001) improved”. Further, in assay [2] (1 μg/ml), the “improvement of attachment and neurite outgrowth of neocortical neurons compared to that induced by p20 (1 μg/ml)” value is listed as “statistically significant”. In assay [2] (10 μg/ml soluble peptide, vs unlesioned and lesioned controls), the “neuronal survival (attachment and neurite outgrowth) of neocortical neurons on lesioned spinal cord glial cells” value is “no statistical difference of neuronal survival”. Moreover, the “extension of neurofilament-positive neurites from spinal cord embryonal bodies on white matter” value in assay [3] (10 days in vitro) is recorded as “long neurofilament-positive nerve fibres extend out of the embryonal bodies”. Further, in assay [3] (10 days in vitro, p<0.0001 vs control), the “numbers of long neurites extending from embryonal bodies onto white matter” value is recorded as “a large number of long neurites extended”. The “numbers of embryonal bodies attached and sending out neurites on white matter” value in assay [3] (10 days, vs control (p<0.01) and vs P1543 (p<0.01)) is listed as “significantly higher”.
